Data set [1] deals with Staphylococcus epidermidis ATCC 1551. Kind of data set: antimicrobial activity, MIC, organism 6. Type of data set: cell-based. The protocol: (§1) The main properties of the surface activity in aqueous solution at 25° C. which define the practical interest of a surfactant; surface stress to the critical micellar concentration (γ) and critical micellar concentration (CMC) have been determined according to conventional methods. Likewise, the antimicrobial activity has been evaluated based on the inhibiting minimum concentration values (MIC) expressed in μg/mL following the most common methodologies. Table 1 indicates the values of […], CMC and MIC for two dimers of the same homologeous series; C4 (KA)2 (X=8,n=4) and C4 (LA)2 (X=10, n=4). For the purpose of comparisons in this same table the same values are indicated for the monocatenary compounds KAM and LAM respectively.
6. Staphylococcus epidermidis ATCC 1551

Data set [2] concerns Staphylococcus aereus ATCC 25178. Kind of data set: antimicrobial activity, MIC, organism 5. Type of data set: cell-based. The protocol: as §1
5. Staphylococcus aereus ATCC 25178

The test system of data set [3] is Micrococcus luteus ATCC 9341. Kind of data set: antimicrobial activity, MIC, organism 7. The class given is cell-based. The protocol: as §1
7. Micrococcus luteus ATCC 9341

Data set [4] is described as follows: surface activity: surface tension at the critical micellar concentration, aqueous solution 25° C. Also noted: unit not given here. The class given is physicochemical. The protocol: as §1
The subject of data set [5] is Streptococcus faecalis ATCC 10541. Kind of data set: antimicrobial activity, MIC, organism 3. The class given is cell-based. The protocol:
as §1
3. Streptococcus faecalis ATCC 10541

The test system of data set [6] is Bacilus subtilis ATCC 6633. Kind of data set: antimicrobial activity, MIC, organism 4. Type of data set: cell-based. The protocol: as §1
4. Bacilus subtilis ATCC 6633

The test system of data set [7] is Bordeltella bronchiseptica ATCC. Kind of data set: antimicrobial activity, MIC, organism 2. The class given is cell-based. Here is the method:
as §1
2. Bordeltella bronchiseptica ATCC

In data set [8] the test system is Alcaligenes faecalis ATTCC 8750. Kind of data set: antimicrobial activity, minimum inhibitory concentration (MIC), organism 1. The class given is cell-based. The protocol: as §1
1. Alcaligenes faecalis ATTCC 8750

The nature of data set [9]: critical micellar concentration (CMC), aqueous solution 25° C. The class given is physicochemical. Here is the method: as §1

The values below come from patent publication US5994406A, “Geminal cationic surfactants of the type Nα Nω bis (Nα-acyl-arginin) α,ω diamino alkyl dichlorohydrates as antimicrobial agents” (Consejo Superior Investigaciones Cientificas, priority 1995, dated 1999).

The MIC is the smallest concentration in the dilution series that meets the test's criterion for growth inhibition.

≈ marks a conversion by molar mass, not a printed value. Like-named read-outs stand apart in the source and are kept apart here.

Regarding `CCCCCCCCCC(=O)N[C@@H](CCCNC(=N)N)C(=O)NCCCCNC(=O)[C@H](CCCNC(=N)N)NC(=O)CCCCCCCCC` [C4 (KA)2, Nα, Nω, Bis (Nα -Decanoilarginin) α,ω-Diaminobuthylamide], the MIC in [1] (ATCC1551, read-out: MIC) stood at 8 µg/mL (≈ 11.3 µM); in [2] (ATCC25178, read-out: MIC), 8 µg/mL (≈ 11.3 µM); in [3] (ATCC9341, read-out: MIC), 8 µg/mL (≈ 11.3 µM); in [5] (Enterococcus faecalis, ATCC10541, read-out: MIC), 16 µg/mL (≈ 22.6 µM); in data set [6] (read-out: MIC), 8 µg/mL (≈ 11.3 µM); in data set [7] (read-out: MIC), 32 µg/mL (≈ 45.1 µM). In addition, in data set [8] (ATTCC8750, read-out: MIC), the minimal inhibitory concentration (MIC) worked out at 64 µg/mL (≈ 90.3 µM). The “surface stress (γ) at the critical micellar concentration” value in data set [4] was determined as 25. The compound also had a CMC in data set [9] of 7.8e-06 mM.

Regarding `CCCCCCCCCCCC(=O)N[C@@H](CCCN=C(N)N)C(=O)OC` [LAM], the MIC in data set [1] is 64 µg/mL (≈ 173 µM); in [2], 64 µg/mL (≈ 173 µM); in data set [3] it was more than 128 µg/mL; in data set [5], 32 µg/mL (≈ 86.4 µM); in data set [6], more than 128 µg/mL; in data set [7] it was more than 128 µg/mL. In [8], this compound returned an MIC of 64 µg/mL (≈ 173 µM). In addition, in [4], the “surface stress (γ) at the critical micellar concentration” value worked out at 30.0. Also, in data set [9], the CMC was 0.0037 mM.
